Test system: Aspergillus niger ATCC 16404
Assay: Testing for adequate preservation (European Pharmacopoeia) of O/W emulsion, Example 1
Type: cell-based
Conditions: for Aspergillus niger germ count: O/W emulsion pH 5.5, 0.5% product A, 0.01% product B, 0.31% product C
Method: Testing for adequate preservation was carried out in accordance with the European Pharmacopoeia. Testing thus comprises contamination of the formulation, if possible in its final condition, with a prescribed inoculum of suitable microorganisms, storage of the inoculated formulation at a certain temperature, removal of samples from the container at certain intervals of time and determination of the number of microorganisms in the samples removed in this way. The preserving properties are adequate if, under the conditions of the test, a clear reduction or, where appropriate, no increase in the germ count results in the inoculated formulations after the prescribed times at the prescribed temperatures. Experimental details of the test procedure are described in the European Pharmacopoeia (ISBN 3-7692-2768-9; Supplement 2001 to the 3rd Edition, page 421-422, chapter 5.1.3). The following microorganism strains were used for the tests for adequate preservation: • A: Escherichia coli ATCC 8739 • B: Pseudomonas aeruginosa ATCC 9027 • C: Staphylococcus aureus ATCC 6538 • D: Candida albicans ATCC 10231 • E: Aspergillus niger ATCC 16404 The initial germ count (CFU/g; “0 value”) was in the range of from 250,000 to 320,000 in the various test series. Formulation: For the tests for adequate preservation, a defined amount of the active compound combination according to the invention (product C) was incorporated into an O/W emulsion. For comparison purposes, the comparison products (product A and B) were incorporated into separate O/W emulsions. [table] The results of the preservative stress tests for Aspergillus niger for the active compound combinations investigated, comprising the mixture according to the invention (product C) or the comparison systems (products A and B) are compared in Table 2. The synergistic effect of the mixture according to the invention (product C) manifests itself here above all in the residual germ counts for Aspergillus niger which remain after 28 days.

Question: O=c1cccccc1O [product B, 2,4,6-cycloheptatrien-1-one, 2-hydroxy] was tested. Which “reduction in the number of colony-forming units (CFU) of Aspergillus niger” value (28 days, product A 0.5 wt. %) did it give?
Answer: no such significant reduction

Question: And the “Aspergillus niger germ count” value (day 0 (initial germ count))?
Answer: 280,000 CFU/ml

Question: What about the “Aspergillus niger germ count” value (day 2) of the same compound?
Answer: 72,000 CFU/ml

Question: What about the “Aspergillus niger germ count” value (day 7) of the same compound?
Answer: 2,000 CFU/ml

Question: What about the “Aspergillus niger germ count” value (day 14) of the same compound?
Answer: 4,800 CFU/ml

Question: And the “Aspergillus niger germ count” value (day 28)?
Answer: 100 CFU/ml

Reference: US8647651B2, “Synergistic mixtures of C6- to C12-alkanediols and tropolone (derivatives)” (priority 2005, dated 2014)
